{"source": "patent US20130202685A1", "about": "“Use of a histamine H4 antagonist for the treatment of post-operative adhesions” (Janssen Pharmaceutica NV, priority 2008, published 2013)", "key": {"[1]": {"system": "adhesion formation at the site of sidewall injury", "experiment": "Peritoneal sidewall adhesion model (rabbit)", "format": "in vivo", "details": "for Adhesion Area / Adhesion Tenacity: individual animals; for Adhesion Area Mean/SEM: group mean; for Adhesion Tenacity Mean/SEM (mean of the rank of the tenacity): group mean rank; for Adhesion Tenacity: score 0-3", "procedure": "Multiple studies to confirm the efficacy of histamine H4 receptor antagonists in the reduction or inhibition of adhesion formation after peritoneal surgery were performed using a sidewall adhesion model.\nAnimals: Twenty eight female New Zealand White rabbits, 2.4-2.7 kg, were purchased from Irish Farms and quarantined for at least 2 days prior to use. The rabbits were housed on a 12:12 light:dark cycle with food and water available ad libitum.\nRabbits were anesthetized with a mixture of 55 mg/kg ketamine hydrochloride and 5 mg/kg Rompum intramuscularly. Following preparation for sterile surgery, a midline laparotomy was performed. A polyethylene catheter (Clay Adams polyethylene tubing PE-60 ID 0.76 mm (0.030″) OD 1.22 mm (0.048″)) was introduced into the peritoneal cavity and sutured to the sidewall with 5-0 Ethilon. For local administration, an Alzet miniosmotic pump (10 μl/hour, 2 ml, Model 2ML1 from Durect), filled with one dosage level or placebo (water for injection) control at 10 μl/hour over 7 days starting with the day of surgery was placed in the subcutaneous space. The catheter was then attached to the pump and the midline muscle incision was closed around the catheter. The cecum and bowel were exteriorized and digital pressure was exerted to create subserosal hemorrhages over all surfaces. The damaged intestine was then lightly abraded with 4″×4″ 4-ply sterile gauze until punctate bleeding was observed. The cecum and bowel was then returned to their normal anatomic position. A 5×3 cm area of peritoneum and transversus abdominous muscle was removed on the right lateral abdominal wall. The incision was closed in two layers with 3-0 Vicryl (Ethicon, Somerville, N.J.). The pump was replaced at day 7.\nTwenty-one days after surgery, rabbits were sacrificed by intravenous EuthaSol. Adhesion formation at the site of sidewall injury was assessed by examination to determine the percentage of the area of the sidewall injury involved in adhesions. The percentage of a surface of the sidewall involved in adhesions to various organs are given in the tables below to quantify the overall adhesion score. In addition, tenacity of the adhesion formed was scored using a system as follows:\n1=mild, easily dissectible adhesions;\n3=dense adhesions; non-dissectible, tears when removed.\nThe difference in adhesion formation between the control and treated groups were analyzed by Student's t-test. A reduction in the area and the tenacity of the adhesions would be considered beneficial and efficacious.\nGeneral observations were conducted on each animal (appearance, behavior, clinical signs, symptoms, moribundity, mortality, and physical examinations) prior to assignment to study and on the day of necropsy. On the day of necropsy data and observations were recorded with particular attention to inflammation, granulomatous material and adhesion formation at the treatment site. All biocompatibility results were recorded, and the level of reaction was noted (none, mild, moderate, severe)."}, "[2]": {"system": "adhesion formation at the site of sidewall injury", "experiment": "Peritoneal sidewall adhesion model (rabbit)", "format": "in vivo", "details": "individual animals"}, "[3]": {"details": "5 mg/ml, non-systemic by Alzet pump, 21 days after surgery"}, "[4]": {"details": "5 mg/ml, non-systemic by pump, result in words"}}, "note": "Several values for one entry are separate records, joined by “and”; a condition that tells them apart may be missing. Equal entries are not always repeated.", "data": [{"smiles": "CN1CCN(C(=O)c2c[nH]c3ccc(Cl)cc23)CC1", "note": "[(5-Chloro-1H-indol-3-yl)-(4-methyl-piperazin-1-yl)-methanone]", "values": [{"measurement": "Adhesion Area", "setting": "[1]; 5 mg/ml, non-systemic by Alzet pump 10 μl/hour, 21 days after surgery", "value": "60 percentage and 70 percentage and 40 percentage and 80 percentage and 50 percentage and 100 percentage (2×)"}, {"measurement": "Adhesion Area Mean/SEM", "setting": "[1]; [3]", "value": "71.4 ± 8.8", "unit": "percentage"}, {"measurement": "Adhesion Tenacity Mean/SEM (mean of the rank of the tenacity)", "setting": "[1]; [3]", "value": "6.93 ± 1.4"}, {"measurement": "Adhesion Tenacity", "setting": "[1]; [3]", "value": "1 (6×) and 2"}, {"measurement": "clinical signs", "setting": "[1]; 5 mg/ml, non-systemic by pump, general observations", "value": "No other rabbits showed any clinical signs"}, {"measurement": "inflammatory or granulomatous reactions in the peritoneal cavity", "setting": "[1]; 5 mg/ml, non-systemic by pump, necropsy observation", "value": "no inflammatory or granulomatous reactions"}, {"measurement": "area of adhesions versus control", "setting": "[1]; [4]", "value": "significantly reduced"}, {"measurement": "tenacity of adhesions versus control", "setting": "[1]; [4]", "value": "significantly reduced"}]}, {"smiles": "Cc1cc(C)c2nc(-c3cnc(NCCCC4CCN(C)CC4)nc3C)[nH]c2c1", "note": "[Test Compound, [5-(4,6-dimethyl-1H-benzoimidazol-2-yl)-4-methyl-pyrimidin-2-yl]-[3-(1-methyl-piperidin-4-yl)-propyl]-amine]", "values": [{"measurement": "Adhesion Area", "setting": "[1]; 0.1 mg/ml, non-systemic (pump), 21 days after surgery", "value": "80 percentage (2×) and 100 percentage (3×) and 70 percentage (2×)"}, {"measurement": "Adhesion Area Mean/SEM", "setting": "[1]; 0.1 mg/ml, non-systemic (pump)", "value": "85.7 ± 5.28", "unit": "percentage"}, {"measurement": "Adhesion Tenacity Mean/SEM (mean of the rank of the tenacity)", "setting": "[1]; 0.1 mg/ml, non-systemic (pump)", "value": "20.1 ± 3.37"}, {"measurement": "Adhesion Tenacity", "setting": "[1]; 0.1 mg/ml, non-systemic (pump)", "value": "2 (5×) and 3 and 1"}, {"measurement": "Adhesion Area", "setting": "[1]; 1 mg/ml, non-systemic (pump), 21 days after surgery", "value": "80 percentage (3×) and 70 percentage and 60 percentage (3×)"}, {"measurement": "Adhesion Area Mean/SEM", "setting": "[1]; 1 mg/ml, non-systemic (pump)", "value": "70 ± 10", "unit": "percentage"}, {"measurement": "Adhesion Tenacity Mean/SEM (mean of the rank of the tenacity)", "setting": "[1]; 1 mg/ml, non-systemic (pump)", "value": "13.9 ± 3.38"}, {"measurement": "Adhesion Tenacity", "setting": "[1]; 1 mg/ml, non-systemic (pump)", "value": "2 (4×) and 1 (3×)"}, {"measurement": "Adhesion Area", "setting": "[1]; 10 mg/ml, non-systemic (pump), 21 days after surgery", "value": "100 percentage (2×) and 60 percentage (2×) and 80 percentage (2×) and 90 percentage"}, {"measurement": "Adhesion Area Mean/SEM", "setting": "[1]; 10 mg/ml, non-systemic (pump)", "value": "81.4 ± 6.34", "unit": "percentage"}, {"measurement": "Adhesion Tenacity Mean/SEM (mean of the rank of the tenacity)", "setting": "[1]; 10 mg/ml, non-systemic (pump)", "value": "18.3 ± 1.43"}, {"measurement": "Adhesion Tenacity", "setting": "[1]; 10 mg/ml, non-systemic (pump)", "value": "2 (6×) and 1"}, {"measurement": "Adhesion Area Mean/SEM", "setting": "[1]; 30 mg/kg orally", "value": "78.6 ± 8.85", "unit": "percentage"}, {"measurement": "Adhesion Tenacity Mean/SEM (mean of the rank of the tenacity)", "setting": "[1]; 30 mg/kg orally", "value": "17.6 ± 5.27"}, {"measurement": "tenacity of adhesions", "setting": "[1]; mid-dose (1 mg/ml) administered by pump, not statistically significant, result in words", "value": "appeared reduced"}, {"measurement": "area of adhesion reduction", "setting": "[1]; mid-dose (1 mg/ml) administered by pump, result in words", "value": "statistically significant"}, {"measurement": "Adhesion Area", "setting": "[2]; 30 mg/kg orally (gavage on day of surgery and four additional days), 21 days after surgery", "value": "100 percentage (3×) and 40 percentage and 70 percentage and 80 percentage and 60 percentage"}, {"measurement": "Adhesion Tenacity", "setting": "[2]; 30 mg/kg orally, score 0-3", "value": "3 (2×) and 1 (3×) and 2 (2×)"}]}]}
